Experimental findings from paper PMC5519977, “Redox-dependent substrate-cofactor interactions in the Michaelis-complex of a flavin-dependent oxidoreductase” (Nature Communications, 2017) are described below.

The target in this test is T1, xenobiotic reductase A (XenA) (Pseudomonas putida, UniProt Q3ZDM6).
T1 construct: recombinant in E. coli Rosetta (DE3), pET28a; N-terminal His-tag removed with TEV protease; reconstituted with FMN
Description: stopped-flow reoxidation of reduced enzyme. The class given is biochemical. The note with it: reduced enzyme (FMNH-), anoxic, 50 mM Tris/HCl pH 8.0, 25 °C.

T1 sequence (Q3ZDM6 entry or part of it): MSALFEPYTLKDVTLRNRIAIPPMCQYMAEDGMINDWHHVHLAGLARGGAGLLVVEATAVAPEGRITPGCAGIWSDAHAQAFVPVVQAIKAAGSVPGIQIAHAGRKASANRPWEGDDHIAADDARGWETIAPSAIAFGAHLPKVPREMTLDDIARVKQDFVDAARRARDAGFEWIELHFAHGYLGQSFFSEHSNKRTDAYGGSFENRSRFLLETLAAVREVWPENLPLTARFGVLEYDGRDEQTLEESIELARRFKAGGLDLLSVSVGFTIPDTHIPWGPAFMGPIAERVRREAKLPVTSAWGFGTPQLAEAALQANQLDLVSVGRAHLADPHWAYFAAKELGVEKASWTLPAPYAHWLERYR

For `O=c1ccc2ccc(O)cc2o1` [7-hydroxycoumarin], the dissociation constant result is listed as “dissociation constants of the reduced Michaelis complexes for the respective substrates”.

Consider `O=c1ccc2cccc(O)c2o1` [8-hydroxycoumarin], for which the dissociation constant result is given as “dissociation constants of the reduced Michaelis complexes for the respective substrates”. As for `O=c1ccc2ccccc2o1` [coumarin], the dissociation constant result is reported as “dissociation constants of the reduced Michaelis complexes for the respective substrates”.
